Where “and” joins values, the source holds several entries; their conditions need not be identical. Identical values can stand only once. Toxic doses and inconclusive results are not listed.
System: L1210 leukemia ip in BDF1 mice, survival T/C
Experiment: NCI In Vivo Anticancer Drug Screen. Data for tumor model L1210 Leukemia (intraperitoneal) in B6D2F1 (BDF1) mice
Settings: endpoint: mean survival time, higher = longer survival
Method in brief: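 Survival endpoint. Drug-treated group vs vehicle group, expressed as T divided by C. Tumor passaged by transplantation.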

[1] = dose: 25.0 mg/kg/injection, schedule: Q01DX009 (ip), vehicle: saline
[2] = dose: 25.0 mg/kg/injection, schedule: Q04DX003 (ip), vehicle: saline
[3] = dose: 50.0 mg/kg/injection, schedule: Q01DX009 (ip), vehicle: saline
[4] = dose: 50.0 mg/kg/injection, schedule: Q04DX003 (ip), vehicle: saline
[5] = dose: 100.0 mg/kg/injection, schedule: Q01DX009 (ip), vehicle: saline
[6] = dose: 100.0 mg/kg/injection, schedule: Q04DX003 (ip), vehicle: saline
[7] = dose: 100.0 mg/kg/injection, schedule: Q04DX002 (ip), vehicle: saline
[8] = dose: 200.0 mg/kg/injection, schedule: Q04DX002 (ip), vehicle: saline
[9] = dose: 400.0 mg/kg/injection, schedule: Q04DX002 (ip), vehicle: saline
[10] = dose: 100.0 mg/kg/injection, schedule: Q01DX009 (ip), vehicle: saline with Tween-80
[11] = dose: 200.0 mg/kg/injection, schedule: Q01DX009 (ip), vehicle: saline with Tween-80
[12] = dose: 400.0 mg/kg/injection, schedule: Q01DX009 (ip), vehicle: saline with Tween-80
[13] = dose: 200.0 mg/kg/injection, schedule: Q01DX009 (ip), vehicle: saline
[14] = dose: 100.0 mg/kg/injection, schedule: Q01DX009 (ip), vehicle: Klucel (hydroxypropylcellulose) (HPC)
[15] = dose: 100.0 mg/kg/injection, schedule: Q04DX003 (ip), vehicle: saline with Tween-80
[16] = dose: 200.0 mg/kg/injection, schedule: Q04DX003 (ip), vehicle: saline with Tween-80
[17] = dose: 400.0 mg/kg/injection, schedule: Q04DX003 (ip), vehicle: saline with Tween-80
[18] = dose: 100.0 mg/kg/injection, schedule: Q01DX001 (ip), vehicle: carboxymethylcellulose (CMC)
[19] = dose: 200.0 mg/kg/injection, schedule: Q01DX001 (ip), vehicle: carboxymethylcellulose (CMC)
[20] = dose: 400.0 mg/kg/injection, schedule: Q01DX001 (ip), vehicle: carboxymethylcellulose (CMC)

`COc1ccc(Nc2ccc(OC)cc2C(=O)O)cc1` was tested, and the T/C (dose: 75.0 mg/kg/injection, schedule: Q01DX001 (ip), vehicle: saline) was 102 % of control, the T/C (dose: 75.0 mg/kg/injection, schedule: Q01DX009 (ip), vehicle: saline) was 89 % of control and the T/C (dose: 150.0 mg/kg/injection, schedule: Q01DX001 (ip), vehicle: saline) was 102 % of control. The T/C (dose: 150.0 mg/kg/injection, schedule: Q01DX009 (ip), vehicle: saline) was 104 % of control, the T/C (dose: 300.0 mg/kg/injection, schedule: Q01DX001 (ip), vehicle: saline) was 104 % of control and the T/C (dose: 300.0 mg/kg/injection, schedule: Q01DX009 (ip), vehicle: saline) was 101 % of control.
With `CC1(C)N=C(N)N=C(N)N1c1cccc(CN)c1` the T/C [1] was 101 % of control, the T/C [2] was 101 % of control and the T/C [3] was 102 % of control and 103 % of control. For the same molecule, the T/C [4] was 103 % of control, the T/C [5] was 98 % of control and 86 % of control and the T/C [6] was 102 % of control and 105 % of control.
`Clc1ccc(-c2coc3cccc[n+]23)cc1` was tested, and the T/C (dose: 75.0 mg/kg/injection, schedule: Q01DX001 (ip), vehicle: other) was 100 % of control, the T/C (dose: 150.0 mg/kg/injection, schedule: Q01DX001 (ip), vehicle: other) was 97 % of control and the T/C (dose: 300.0 mg/kg/injection, schedule: Q01DX001 (ip), vehicle: other) was 97 % of control.
`CC1CCCCC1C(=O)N1CCCCC1` (stereo not drawn) was tested, and the T/C [7] was 117 % of control, the T/C [8] was 96 % of control and the T/C [9] was 101 % of control.
In the case of `O=S(=O)(Nc1cc(C(F)(F)F)ccc1Cl)c1ccc(Cl)cc1`, the T/C [7] is reported as 90 % of control, the T/C [8] is reported as 106 % of control and the T/C [9] is reported as 97 % of control.
For `NC(=O)OCC(CO)(c1ccccc1)c1ccccc1`, the T/C (dose: 5.0 mg/kg/injection, schedule: Q01DX001 (ip), vehicle: saline) was 98 % of control, the T/C (dose: 10.0 mg/kg/injection, schedule: Q01DX001 (ip), vehicle: saline) was 93 % of control and the T/C (dose: 20.0 mg/kg/injection, schedule: Q01DX001 (ip), vehicle: saline) was 102 % of control. The T/C (dose: 40.0 mg/kg/injection, schedule: Q01DX001 (ip), vehicle: saline) was 102 % of control and the T/C (dose: 80.0 mg/kg/injection, schedule: Q01DX001 (ip), vehicle: saline) was 98 % of control.
In the case of `C[S+]1CCSCC1`, the T/C [2] is reported as 90 % of control, the T/C [4] is reported as 87 % of control and the T/C [6] is reported as 117 % of control.
With `CC(=O)CSc1nc2nccnc2[nH]1` the T/C (dose: 25.0 mg/kg/injection, schedule: Q01DX009 (ip), vehicle: saline with Tween-80) was 110 % of control, the T/C (dose: 50.0 mg/kg/injection, schedule: Q01DX009 (ip), vehicle: saline with Tween-80) was 110 % of control and the T/C [10] was 104 % of control. For the same molecule, the T/C [11] was 104 % of control and the T/C [12] was 107 % of control.
In the case of `CCCCCCCCCCOc1ccc(/C=N\N=C\c2ccc(OCCCCCCCCCC)cc2)cc1`, the T/C [10] is reported as 88 % of control, the T/C [11] is reported as 97 % of control and the T/C [12] is reported as 95 % of control.
In the case of `Cc1cc(C)c(O)c(C)c1C`, the T/C [10] is reported as 104 % of control and the T/C [12] is reported as 95 % of control.
`CN(Cc1cnc2nc(N)nc(N)c2n1)c1ccc(C(=O)NC(CCC(=O)NCC(=O)O)C(=O)O)cc1` (stereo not drawn) was tested, and the T/C (dose: 5.0 mg/kg/injection, schedule: Q01DX009 (ip), vehicle: sodium bicarbonate) was 174 % of control and the T/C (dose: 10.0 mg/kg/injection, schedule: Q01DX009 (ip), vehicle: sodium bicarbonate) was 161 % of control.
In the case of `Cc1ccc(CC(=O)O)cc1C`, the T/C [10] is reported as 101 % of control, the T/C [11] is reported as 104 % of control and the T/C [12] is reported as 102 % of control.
With `CC(=O)Nc1ccc(Cl)cc1C(=O)c1ccc[nH]1` the T/C [3] was 110 % of control, the T/C [5] was 104 % of control and the T/C [6] was 106 % of control. The T/C [13] was 103 % of control, the T/C (dose: 200.0 mg/kg/injection, schedule: Q04DX003 (ip), vehicle: saline) was 108 % of control and the T/C (dose: 400.0 mg/kg/injection, schedule: Q01DX009 (ip), vehicle: saline) was 98 % of control. The T/C (dose: 400.0 mg/kg/injection, schedule: Q04DX003 (ip), vehicle: saline) was 93 % of control.
`O=C(Nc1nccs1)NC1CCCCC1` was tested, and the T/C (dose: 100.0 mg/kg/injection, schedule: Q01DX009 (ip), vehicle: other) was 100 % of control, the T/C (dose: 200.0 mg/kg/injection, schedule: Q01DX009 (ip), vehicle: other) was 96 % of control and the T/C (dose: 400.0 mg/kg/injection, schedule: Q01DX009 (ip), vehicle: other) was 93 % of control.
`COc1cc(C(=O)NNC(=O)c2cccc(C)c2)cc(OC)c1OC` was tested, and the T/C [14] was 100 % of control, the T/C (dose: 200.0 mg/kg/injection, schedule: Q01DX009 (ip), vehicle: Klucel (hydroxypropylcellulose) (HPC)) was 95 % of control and the T/C (dose: 400.0 mg/kg/injection, schedule: Q01DX009 (ip), vehicle: Klucel (hydroxypropylcellulose) (HPC)) was 105 % of control.
With `O=C(N/N=C/c1ccccc1Cl)C(O)C(O)C(O)C(O)CO` (stereo not drawn) the T/C (dose: 100.0 mg/kg/injection, schedule: Q04DX002 (ip), vehicle: saline with Tween-80) was 112 % of control, the T/C (dose: 200.0 mg/kg/injection, schedule: Q04DX002 (ip), vehicle: saline with Tween-80) was 94 % of control and the T/C (dose: 400.0 mg/kg/injection, schedule: Q04DX002 (ip), vehicle: saline with Tween-80) was 94 % of control.
With `CC(C)(C=O)C(=O)Nc1ccccc1` the T/C [7] was 103 % of control, the T/C [8] was 106 % of control and the T/C [9] was 103 % of control.
With `O=C1c2cc(-c3ccccc3)c(-c3ccccc3)cc2C(c2ccccc2)(c2ccccc2)C1Br` (stereo not drawn) the T/C [15] was 94 % of control, the T/C [16] was 91 % of control and the T/C [17] was 93 % of control.
With `CCOC(=O)c1csc(/C=C/c2ccc([N+](=O)[O-])o2)n1` the T/C (dose: 100.0 mg/kg/injection, schedule: Q04DX003 (ip), vehicle: Klucel (hydroxypropylcellulose) (HPC)) was 89 % of control and the T/C (dose: 200.0 mg/kg/injection, schedule: Q04DX003 (ip), vehicle: Klucel (hydroxypropylcellulose) (HPC)) was 92 % of control.
In the case of `CCN(CC)CC(=O)NCC(CCN1CCCC1)(c1cccc2ccccc12)C(C)C` (stereo not drawn), the T/C [1] is reported as 101 % of control, the T/C [3] is reported as 98 % of control and the T/C [5] is reported as 101 % of control.
For `Cn1c2c(c(=O)n(C)c1=O)CC(=O)N2`, the T/C (dose: 50.0 mg/kg/injection, schedule: Q01DX009 (ip), vehicle: Klucel (hydroxypropylcellulose) (HPC)) was 100 % of control and the T/C [14] was 103 % of control.
For `C/C=C\C1CC2CC(C1C)C2(C)C` (stereo not drawn), the T/C [3] was 102 % of control, the T/C [5] was 97 % of control and the T/C [13] was 105 % of control.
With `COc1ccc2cc(Br)ccc2c1` the T/C [10] was 107 % of control, the T/C [11] was 102 % of control and the T/C [12] was 102 % of control.
In the case of `c1ccc2sc(SSN3CCSCC3)nc2c1`, the T/C (dose: 75.0 mg/kg/injection, schedule: Q04DX003 (ip), vehicle: Klucel (hydroxypropylcellulose) (HPC)) is reported as 102 % of control, the T/C (dose: 100.0 mg/kg/injection, schedule: Q01DX001 (ip), vehicle: other) is reported as 98 % of control and the T/C (dose: 150.0 mg/kg/injection, schedule: Q04DX003 (ip), vehicle: Klucel (hydroxypropylcellulose) (HPC)) is reported as 100 % of control. The T/C (dose: 200.0 mg/kg/injection, schedule: Q01DX001 (ip), vehicle: other) was 92 % of control, the T/C (dose: 300.0 mg/kg/injection, schedule: Q04DX003 (ip), vehicle: Klucel (hydroxypropylcellulose) (HPC)) was 89 % of control and the T/C (dose: 400.0 mg/kg/injection, schedule: Q01DX001 (ip), vehicle: other) was 97 % of control.
`CN(C)Cc1c(C(O)(c2ccccc2)c2ccccc2)cc2ccccc2c1Cl` was tested, and the T/C (dose: 50.0 mg/kg/injection, schedule: Q01DX001 (ip), vehicle: carboxymethylcellulose (CMC)) was 94 % of control, the T/C [18] was 94 % of control and the T/C [19] was 102 % of control. The T/C [20] was 96 % of control.
In the case of `O=C(O)C(SCc1ccccc1)c1ccccc1` (stereo not drawn), the T/C (dose: 100.0 mg/kg/injection, schedule: Q01DX001 (ip), vehicle: saline) is reported as 91 % of control, the T/C [15] is reported as 95 % of control and the T/C (dose: 200.0 mg/kg/injection, schedule: Q01DX001 (ip), vehicle: saline) is reported as 98 % of control. For the same molecule, the T/C [16] was 95 % of control, the T/C (dose: 400.0 mg/kg/injection, schedule: Q01DX001 (ip), vehicle: saline) was 92 % of control and the T/C [17] was 101 % of control.
With `COc1ccc(Br)cc1/C=C\C=O` the T/C [18] was 87 % of control, the T/C [19] was 105 % of control and the T/C [20] was 100 % of control.
